According to ChEMBL document CHEMBL1158599, “(2S,4S)-1-[2-(1,1-dimethyl-3-oxo-3-pyrrolidin-1-yl-propylamino)acetyl]-4-fluoro-pyrrolidine-2-carbonitrile: a potent, selective, and orally bioavailable dipeptide-derived inhibitor of dipeptidyl peptidase IV” (Bioorg Med Chem Lett, 2010):

Assays:
Dipeptidyl peptidase 4 [1] = target: T1, Dipeptidyl peptidase 4 (Homo sapiens, UniProt P27487)
Dipeptidyl peptidase 8 = Dipeptidyl peptidase 8 (Homo sapiens, UniProt Q6V1X1)
Dipeptidyl peptidase 9 [2] = target: T2, Dipeptidyl peptidase 9 (Homo sapiens, UniProt Q86TI2); assay: Inhibition of DPP9
Target sequence in this assay (Q86TI2 whole entry): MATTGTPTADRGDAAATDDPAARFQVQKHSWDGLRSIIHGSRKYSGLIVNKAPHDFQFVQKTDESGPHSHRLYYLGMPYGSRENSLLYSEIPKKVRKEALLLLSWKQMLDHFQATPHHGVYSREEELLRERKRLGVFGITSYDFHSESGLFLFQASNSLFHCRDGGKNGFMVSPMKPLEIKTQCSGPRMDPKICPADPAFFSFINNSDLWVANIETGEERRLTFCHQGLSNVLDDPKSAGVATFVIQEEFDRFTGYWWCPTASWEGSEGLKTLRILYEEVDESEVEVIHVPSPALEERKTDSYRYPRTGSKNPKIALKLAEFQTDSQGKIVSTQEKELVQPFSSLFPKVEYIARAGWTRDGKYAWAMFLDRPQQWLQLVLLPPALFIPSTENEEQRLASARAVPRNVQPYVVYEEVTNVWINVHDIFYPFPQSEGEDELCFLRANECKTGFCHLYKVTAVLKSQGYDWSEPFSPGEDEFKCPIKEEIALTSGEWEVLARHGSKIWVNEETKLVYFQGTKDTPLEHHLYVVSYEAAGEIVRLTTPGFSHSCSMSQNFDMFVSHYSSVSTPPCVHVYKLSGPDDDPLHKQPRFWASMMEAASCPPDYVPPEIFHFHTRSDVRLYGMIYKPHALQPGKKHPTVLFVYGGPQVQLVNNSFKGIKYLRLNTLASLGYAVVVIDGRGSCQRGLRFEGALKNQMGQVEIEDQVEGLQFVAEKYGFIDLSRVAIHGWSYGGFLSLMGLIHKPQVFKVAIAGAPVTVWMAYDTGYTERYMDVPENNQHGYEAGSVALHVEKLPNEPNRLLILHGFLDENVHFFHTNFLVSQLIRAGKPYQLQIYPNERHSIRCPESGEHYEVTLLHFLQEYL

Rattus norvegicus [3] = species on record: Rattus norvegicus; assay: animal or person; details: Plasma, po, 0.5 h, read-out: INH
Rattus norvegicus [4] = species on record: Rattus norvegicus; assay: animal or person; details: Plasma, po, 8 h, read-out: INH
Dipeptidyl peptidase 9 [5] = target: T2, Dipeptidyl peptidase 9; assay: Inhibition of DPP9 at 20 uM
Target sequence in this assay (Q86TI2 2-863 limits assumed): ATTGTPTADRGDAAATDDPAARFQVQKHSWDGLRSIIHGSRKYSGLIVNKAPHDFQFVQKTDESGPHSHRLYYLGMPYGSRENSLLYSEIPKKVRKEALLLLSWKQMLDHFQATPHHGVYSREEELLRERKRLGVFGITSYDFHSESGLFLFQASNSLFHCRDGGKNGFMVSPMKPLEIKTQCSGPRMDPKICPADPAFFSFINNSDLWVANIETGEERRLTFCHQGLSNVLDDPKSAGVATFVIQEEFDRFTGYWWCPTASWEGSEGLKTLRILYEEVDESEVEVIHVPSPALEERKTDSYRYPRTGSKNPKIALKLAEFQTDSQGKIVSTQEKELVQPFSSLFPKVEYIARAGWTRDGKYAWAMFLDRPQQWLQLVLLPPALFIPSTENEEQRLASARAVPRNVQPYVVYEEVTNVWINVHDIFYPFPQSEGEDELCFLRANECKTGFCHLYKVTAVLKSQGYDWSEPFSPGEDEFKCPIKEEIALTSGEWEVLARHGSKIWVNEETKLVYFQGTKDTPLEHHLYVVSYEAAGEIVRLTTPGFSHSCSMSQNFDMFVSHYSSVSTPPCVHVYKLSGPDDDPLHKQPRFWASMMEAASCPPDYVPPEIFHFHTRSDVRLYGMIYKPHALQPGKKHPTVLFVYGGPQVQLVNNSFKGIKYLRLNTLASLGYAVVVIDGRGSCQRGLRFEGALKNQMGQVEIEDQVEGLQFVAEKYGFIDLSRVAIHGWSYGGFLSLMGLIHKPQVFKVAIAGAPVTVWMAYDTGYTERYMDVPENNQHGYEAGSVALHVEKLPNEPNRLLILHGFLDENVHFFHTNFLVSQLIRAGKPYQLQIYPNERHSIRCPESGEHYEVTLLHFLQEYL

Dipeptidyl peptidase 4 [6] = target: T1, Dipeptidyl peptidase 4; remark: listed apart in the source
Dipeptidyl peptidase 2 = Dipeptidyl peptidase 2 (Homo sapiens, UniProt Q9UHL4); assay: Inhibition of DPP2
Prolyl endopeptidase FAP = target: T3, Prolyl endopeptidase FAP (Homo sapiens, UniProt Q12884); assay: Inhibition of FAP
T3 sequence (Q12884 whole entry): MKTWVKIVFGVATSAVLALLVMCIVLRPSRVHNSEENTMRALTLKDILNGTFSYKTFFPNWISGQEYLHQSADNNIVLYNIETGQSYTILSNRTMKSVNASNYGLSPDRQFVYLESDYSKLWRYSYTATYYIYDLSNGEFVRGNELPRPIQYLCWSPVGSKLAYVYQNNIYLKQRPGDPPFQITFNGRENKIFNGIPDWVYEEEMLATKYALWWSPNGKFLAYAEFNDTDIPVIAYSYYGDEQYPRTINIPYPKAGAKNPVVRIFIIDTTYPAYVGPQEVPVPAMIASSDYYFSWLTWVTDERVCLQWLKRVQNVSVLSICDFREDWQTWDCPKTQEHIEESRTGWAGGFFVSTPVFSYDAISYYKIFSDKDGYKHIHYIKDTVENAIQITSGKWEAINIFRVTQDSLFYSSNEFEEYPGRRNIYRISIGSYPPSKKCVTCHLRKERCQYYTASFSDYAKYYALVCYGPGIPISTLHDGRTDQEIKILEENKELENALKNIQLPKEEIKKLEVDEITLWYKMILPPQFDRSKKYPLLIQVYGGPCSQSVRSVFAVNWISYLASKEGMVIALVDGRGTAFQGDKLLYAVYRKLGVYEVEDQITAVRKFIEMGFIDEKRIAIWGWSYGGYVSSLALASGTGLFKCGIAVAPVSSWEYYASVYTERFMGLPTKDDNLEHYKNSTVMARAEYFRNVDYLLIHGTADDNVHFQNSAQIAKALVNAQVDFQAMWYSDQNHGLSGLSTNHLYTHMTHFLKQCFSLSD

Dipeptidyl peptidase 4 [7] = target: T1, Dipeptidyl peptidase 4; remark: listed apart in the source
Mus musculus [8] = assay: Antihyperglycemic activity in C57BL/6J mouse assessed as reduction in blood glucose AUC at 3 mg/kg, po administered 30 mins before glucose challenge; assay type: functional; design: scale not given: the % may be the effect or the level left
[9] = Oral bioavailability in rat; assay type: ADME, organism-based; details: in vivo
[10] = Oral bioavailability in dog; assay type: ADME, organism-based, Canis lupus familiaris; details: in vivo
[11] = target: Beta-secretase 1 (Homo sapiens) (UniProt P56817); assay: Inhibition of beta secretase at 10 uM
Caspase-1 (Homo sapiens) = target: T4, Caspase-1 (Homo sapiens) (UniProt P29466); assay: Inhibition of caspase1 at 10 uM
T4 sequence (whole entry): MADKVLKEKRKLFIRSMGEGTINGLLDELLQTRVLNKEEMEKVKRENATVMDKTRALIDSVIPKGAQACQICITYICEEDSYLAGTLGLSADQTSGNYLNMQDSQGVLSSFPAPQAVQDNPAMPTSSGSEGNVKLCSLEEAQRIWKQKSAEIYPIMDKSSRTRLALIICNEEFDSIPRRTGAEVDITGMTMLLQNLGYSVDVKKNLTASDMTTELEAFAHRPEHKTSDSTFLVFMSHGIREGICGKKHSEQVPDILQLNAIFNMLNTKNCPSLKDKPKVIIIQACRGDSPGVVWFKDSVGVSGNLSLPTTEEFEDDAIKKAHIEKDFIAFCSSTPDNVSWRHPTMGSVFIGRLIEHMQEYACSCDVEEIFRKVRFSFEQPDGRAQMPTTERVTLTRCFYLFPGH

[12] = target: T5, Caspase-10 (Homo sapiens) (UniProt Q92851); assay: Inhibition of caspase 10 at 10 uM
T5 sequence (whole entry): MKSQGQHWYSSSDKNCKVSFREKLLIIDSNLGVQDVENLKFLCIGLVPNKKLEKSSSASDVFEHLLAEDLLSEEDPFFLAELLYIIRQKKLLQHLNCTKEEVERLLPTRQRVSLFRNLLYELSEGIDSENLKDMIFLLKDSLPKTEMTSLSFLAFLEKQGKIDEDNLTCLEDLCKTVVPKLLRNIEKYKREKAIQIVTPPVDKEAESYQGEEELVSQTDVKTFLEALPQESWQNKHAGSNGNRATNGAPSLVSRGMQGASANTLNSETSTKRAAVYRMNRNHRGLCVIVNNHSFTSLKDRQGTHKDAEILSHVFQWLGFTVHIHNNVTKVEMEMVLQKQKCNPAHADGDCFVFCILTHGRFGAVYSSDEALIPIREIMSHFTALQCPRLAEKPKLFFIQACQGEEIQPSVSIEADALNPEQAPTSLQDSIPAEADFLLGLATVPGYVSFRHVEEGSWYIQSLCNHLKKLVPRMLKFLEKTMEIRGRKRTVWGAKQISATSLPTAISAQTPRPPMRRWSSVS

[13] = target: Cathepsin B (Homo sapiens) (UniProt P07858); assay: Inhibition of cathepsin B at 10 uM
[14] = target: T6, Pro-cathepsin H (Homo sapiens) (UniProt P09668); assay: Inhibition of cathepsin H at 10 uM
T6 sequence (whole entry): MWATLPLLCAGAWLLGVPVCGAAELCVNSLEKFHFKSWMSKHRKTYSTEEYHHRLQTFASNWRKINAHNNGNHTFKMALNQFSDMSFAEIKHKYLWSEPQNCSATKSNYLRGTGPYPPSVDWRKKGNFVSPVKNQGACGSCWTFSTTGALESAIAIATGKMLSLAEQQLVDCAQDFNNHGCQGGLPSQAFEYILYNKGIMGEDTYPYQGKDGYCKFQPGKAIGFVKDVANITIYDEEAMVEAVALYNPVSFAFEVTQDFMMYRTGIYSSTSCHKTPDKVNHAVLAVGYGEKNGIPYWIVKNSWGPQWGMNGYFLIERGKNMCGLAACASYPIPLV

[15] = target: Coagulation factor X (Homo sapiens) (UniProt P00742); assay: Inhibition of factor 10a at 10 uM
[16] = target: Prothrombin (Homo sapiens) (UniProt P00734); assay: Inhibition of thrombin at 10 uM
[17] = Inhibition of trypsin at 10 uM
[18] = target: Voltage-gated inwardly rectifying potassium channel KCNH2 (Homo sapiens, UniProt Q12809); assay: Inhibition of human ERG
[19] = Inhibition of L-type calcium channel; details: concentration not given here
[20] = Inhibition of sodium channel site 2; details: concentration not given here
Mus musculus [21] = species on record: Mus musculus; assay: animal or person; details: Plasma, po, 4 h, read-out: INH

T1 sequence (P27487 whole entry): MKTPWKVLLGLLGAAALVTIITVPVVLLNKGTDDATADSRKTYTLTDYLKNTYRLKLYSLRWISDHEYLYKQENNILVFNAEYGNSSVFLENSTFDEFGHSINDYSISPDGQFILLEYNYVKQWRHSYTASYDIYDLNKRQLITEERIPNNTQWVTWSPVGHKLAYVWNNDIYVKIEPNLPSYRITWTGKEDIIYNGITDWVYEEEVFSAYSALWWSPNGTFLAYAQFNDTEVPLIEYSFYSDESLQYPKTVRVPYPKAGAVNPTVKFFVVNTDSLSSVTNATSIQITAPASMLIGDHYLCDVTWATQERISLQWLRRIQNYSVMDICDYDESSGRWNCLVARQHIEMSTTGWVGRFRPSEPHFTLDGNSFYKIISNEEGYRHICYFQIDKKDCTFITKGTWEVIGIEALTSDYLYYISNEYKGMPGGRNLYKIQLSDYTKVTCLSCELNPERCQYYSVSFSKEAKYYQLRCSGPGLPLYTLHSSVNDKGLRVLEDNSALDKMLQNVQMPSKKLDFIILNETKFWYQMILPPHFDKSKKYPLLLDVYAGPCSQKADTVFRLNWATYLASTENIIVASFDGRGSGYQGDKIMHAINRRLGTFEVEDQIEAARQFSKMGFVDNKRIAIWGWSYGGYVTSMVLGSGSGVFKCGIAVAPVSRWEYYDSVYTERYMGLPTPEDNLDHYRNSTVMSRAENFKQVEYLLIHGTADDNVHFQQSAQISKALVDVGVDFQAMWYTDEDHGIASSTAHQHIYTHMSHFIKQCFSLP
Sequence of Dipeptidyl peptidase 8 (Q6V1X1 whole entry): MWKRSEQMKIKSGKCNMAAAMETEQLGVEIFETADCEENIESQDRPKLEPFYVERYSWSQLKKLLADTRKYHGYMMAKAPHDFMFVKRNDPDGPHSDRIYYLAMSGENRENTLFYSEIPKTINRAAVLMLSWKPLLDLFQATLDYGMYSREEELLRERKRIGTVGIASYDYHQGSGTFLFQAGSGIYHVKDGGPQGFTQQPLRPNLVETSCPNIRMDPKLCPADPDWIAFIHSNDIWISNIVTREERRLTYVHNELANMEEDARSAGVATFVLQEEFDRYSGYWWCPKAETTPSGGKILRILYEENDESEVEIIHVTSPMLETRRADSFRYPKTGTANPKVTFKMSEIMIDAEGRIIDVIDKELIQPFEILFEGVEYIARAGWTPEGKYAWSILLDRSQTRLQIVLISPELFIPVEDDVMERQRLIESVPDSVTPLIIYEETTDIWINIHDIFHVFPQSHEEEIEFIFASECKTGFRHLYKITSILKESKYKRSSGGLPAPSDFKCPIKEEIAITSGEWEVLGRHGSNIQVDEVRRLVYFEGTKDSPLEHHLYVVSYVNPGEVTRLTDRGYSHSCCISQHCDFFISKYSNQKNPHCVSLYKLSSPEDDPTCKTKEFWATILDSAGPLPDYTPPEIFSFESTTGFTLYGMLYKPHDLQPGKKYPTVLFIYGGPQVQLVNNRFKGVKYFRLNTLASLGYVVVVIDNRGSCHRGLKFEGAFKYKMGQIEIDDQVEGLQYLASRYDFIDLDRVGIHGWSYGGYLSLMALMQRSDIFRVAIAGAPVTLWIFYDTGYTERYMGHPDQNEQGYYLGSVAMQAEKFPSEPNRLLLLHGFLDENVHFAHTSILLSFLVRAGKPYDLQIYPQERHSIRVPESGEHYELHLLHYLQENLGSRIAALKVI
Sequence of Beta-secretase 1 (Homo sapiens) (P56817 whole entry): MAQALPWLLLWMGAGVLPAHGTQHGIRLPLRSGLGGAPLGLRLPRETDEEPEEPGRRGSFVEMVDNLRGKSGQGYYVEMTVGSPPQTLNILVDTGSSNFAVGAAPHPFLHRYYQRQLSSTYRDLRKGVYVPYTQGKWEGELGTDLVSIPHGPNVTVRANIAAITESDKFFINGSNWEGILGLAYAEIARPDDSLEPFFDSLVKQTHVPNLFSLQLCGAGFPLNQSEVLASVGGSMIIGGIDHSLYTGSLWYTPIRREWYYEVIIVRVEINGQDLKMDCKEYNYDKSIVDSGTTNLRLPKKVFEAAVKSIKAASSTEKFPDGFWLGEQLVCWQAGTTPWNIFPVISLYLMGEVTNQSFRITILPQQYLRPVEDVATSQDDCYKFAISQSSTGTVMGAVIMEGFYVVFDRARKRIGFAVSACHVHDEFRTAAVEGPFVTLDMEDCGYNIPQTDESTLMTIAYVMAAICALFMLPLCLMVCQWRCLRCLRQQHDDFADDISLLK
Sequence of Voltage-gated inwardly rectifying potassium channel KCNH2 (Q12809 whole entry): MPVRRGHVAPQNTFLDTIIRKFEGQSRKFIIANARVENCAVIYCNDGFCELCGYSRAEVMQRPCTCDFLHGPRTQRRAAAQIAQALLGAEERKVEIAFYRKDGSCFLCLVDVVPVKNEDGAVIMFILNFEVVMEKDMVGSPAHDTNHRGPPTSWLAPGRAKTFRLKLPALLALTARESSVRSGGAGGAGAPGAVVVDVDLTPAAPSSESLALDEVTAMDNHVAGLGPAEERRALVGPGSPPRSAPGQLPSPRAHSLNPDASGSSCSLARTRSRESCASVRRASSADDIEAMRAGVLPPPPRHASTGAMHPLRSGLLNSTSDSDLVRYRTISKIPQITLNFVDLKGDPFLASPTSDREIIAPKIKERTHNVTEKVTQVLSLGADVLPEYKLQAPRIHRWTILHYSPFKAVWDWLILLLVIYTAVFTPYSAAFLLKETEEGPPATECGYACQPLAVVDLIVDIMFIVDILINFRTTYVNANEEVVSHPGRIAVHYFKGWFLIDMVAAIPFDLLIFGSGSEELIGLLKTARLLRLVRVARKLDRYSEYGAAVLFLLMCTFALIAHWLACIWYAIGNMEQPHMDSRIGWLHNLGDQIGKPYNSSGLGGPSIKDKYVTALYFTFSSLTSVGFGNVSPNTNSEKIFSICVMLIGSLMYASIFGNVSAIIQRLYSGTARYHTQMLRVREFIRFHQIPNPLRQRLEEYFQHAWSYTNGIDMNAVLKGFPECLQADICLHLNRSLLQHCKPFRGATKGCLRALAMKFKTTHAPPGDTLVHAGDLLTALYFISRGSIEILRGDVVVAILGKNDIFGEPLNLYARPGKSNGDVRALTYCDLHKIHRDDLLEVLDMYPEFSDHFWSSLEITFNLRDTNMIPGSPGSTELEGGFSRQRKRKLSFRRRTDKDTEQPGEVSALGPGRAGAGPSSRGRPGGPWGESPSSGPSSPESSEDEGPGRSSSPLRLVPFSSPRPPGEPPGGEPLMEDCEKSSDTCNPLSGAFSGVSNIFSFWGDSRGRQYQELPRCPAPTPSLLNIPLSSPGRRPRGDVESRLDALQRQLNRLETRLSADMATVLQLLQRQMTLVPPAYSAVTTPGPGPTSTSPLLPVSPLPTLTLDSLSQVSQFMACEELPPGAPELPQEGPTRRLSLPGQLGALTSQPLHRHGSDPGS

| SMILES | IC50 (Dipeptidyl peptidase 4 [1]) | IC50 (Dipeptidyl peptidase 8) | IC50 (Dipeptidyl peptidase 9 [2]) | inhibition in vivo at 3 mg/kg (Rattus norvegicus [3]) | inhibition in vivo at 3 mg/kg (Rattus norvegicus [4]) | further results |
| --- | --- | --- | --- | --- | --- | --- |
| C[C@@H]1CCCN1C(=O)CC(C)(C)NCC(=O)N1C[C@@H](F)C[C@H]1C#N | 0.032 µM | > 20 µM | > 20 µM | 75% | 48% | – |
| CC(C)(CC(=O)NC1CCCC1)NCC(=O)N1C[C@@H](F)C[C@H]1C#N | 0.029 µM | > 20 µM | > 20 µM | 81% | 60% | – |
| CC(C)(CC(=O)N1CCCCCC1)NCC(=O)N1C[C@@H](F)C[C@H]1C#N | 0.16 µM | > 20 µM | > 20 µM | – | – | – |
| CC(C)(CC(=O)N1CC[C@@H](F)C1)NCC(=O)N1C[C@@H](F)C[C@H]1C#N | – | > 20 µM | > 20 µM | – | – | – |
| CC(C)(CC(=O)N1CCSC1)NCC(=O)N1C[C@@H](F)C[C@H]1C#N | 0.027 µM | > 20 µM | > 20 µM | 77% | 56% | – |
| CC(C)(CC(=O)N1CC=CCC1)NCC(=O)N1C[C@@H](F)C[C@H]1C#N | 0.018 µM | > 20 µM | – | 85% | 70% | inhibition (Dipeptidyl peptidase 9 [5]): 50% |
| COc1ccc(NC(=O)CC(C)(C)NCC(=O)N2C[C@@H](F)C[C@H]2C#N)nc1 | 0.019 µM | > 20 µM | – | 88% | 41% | inhibition (Dipeptidyl peptidase 9 [5]): 61%; IC50 (Dipeptidyl peptidase 4 [6]): 0.018 µM |
| COc1ccc(NC(=O)CC(C)(C)NCC(=O)N2CCC[C@H]2C#N)cc1OC | – | > 50 µM | > 20 µM | – | – | IC50 (Dipeptidyl peptidase 2): > 20 µM; IC50 (Prolyl endopeptidase FAP): > 50 µM |
| CC(C)(CC(=O)N1CCOCC1)NCC(=O)N1C[C@@H](F)C[C@H]1C#N | 0.02 µM | > 20 µM | > 20 µM | 89% | 59% | IC50 (Dipeptidyl peptidase 4 [6]): 0.013 µM; IC50 (Dipeptidyl peptidase 4 [7]): 0.014 µM |
| N[C@@H](CC(=O)N1CCn2c(nnc2C(F)(F)F)C1)Cc1cc(F)c(F)cc1F [SITAGLIPTIN] | – | – | – | 30% | 20% | – |
| CC(C)(CC(=O)N1CC[C@H](O)C1)NCC(=O)N1C[C@@H](F)C[C@H]1C#N | 0.05 µM | > 20 µM | > 20 µM | – | – | – |
| CC(C)(CC(=O)N1CCN(S(C)(=O)=O)CC1)NCC(=O)N1C[C@@H](F)C[C@H]1C#N | 0.024 µM | > 20 µM | > 20 µM | 64% | 7% | IC50 (Dipeptidyl peptidase 4 [6]): 0.015 µM |
| CC(C)(CC(=O)N1CCCC1)NCC(=O)N1CCC[C@H]1C#N | – | > 20 µM | > 20 µM | – | – | – |
| CC(C)(CC(=O)N1CCCC1)NCC(=O)N1C[C@@H](F)C[C@H]1C#N [DBPR-108] | 0.015 µM | > 100 µM | > 50 µM | 82% | 70% | IC50 (Dipeptidyl peptidase 4 [6]): 0.005 µM; IC50 (Dipeptidyl peptidase 4 [7]): 0.01 µM; Activity (Mus musculus [8]): 67%; bioavailability [9]: 19%; bioavailability [10]: 68%; inhibition [11]: 3%; inhibition (Caspase-1 (Homo sapiens)): 23%; inhibition [12]: 8%; inhibition [13]: -10%; inhibition [14]: 0%; inhibition [15]: 2%; inhibition [16]: -7%; inhibition [17]: 0%; inhibition (INH) [18]: -6%; inhibition [19]: -9%; inhibition [20]: 1% |
| CC(C)(CC(=O)N1CCC[C@H]1CO)NCC(=O)N1C[C@@H](F)C[C@H]1C#N | 0.024 µM | > 20 µM | > 20 µM | – | – | – |
| CC(C)(CC(=O)Nc1ccccn1)NCC(=O)N1C[C@@H](F)C[C@H]1C#N | 0.019 µM | > 20 µM | > 20 µM | 87% | 31% | IC50 (Dipeptidyl peptidase 4 [6]): 0.019 µM; IC50 (Dipeptidyl peptidase 4 [7]): 0.024 µM |
| CCOC(=O)N1CCN(C(=O)CC(C)(C)NCC(=O)N2C[C@@H](F)C[C@H]2C#N)CC1 | 0.063 µM | > 20 µM | > 20 µM | – | – | – |
| CC(C)(CC(=O)N1CC[C@@H](O)C1)NCC(=O)N1CCC[C@H]1C#N | 0.18 µM | > 20 µM | > 20 µM | – | – | – |
| CN1CCN(C(=O)CC(C)(C)NCC(=O)N2C[C@@H](F)C[C@H]2C#N)CC1 | 0.093 µM | > 20 µM | – | – | – | inhibition (Dipeptidyl peptidase 9 [5]): 86% |
| CC(C)(CC(=O)N1CCCCC1)NCC(=O)N1C[C@@H](F)C[C@H]1C#N | 0.027 µM | > 20 µM | > 20 µM | 86% | 74% | IC50 (Dipeptidyl peptidase 4 [6]): 0.014 µM |
| CC(C)(CC(=O)N1CCC(=O)CC1)NCC(=O)N1C[C@@H](F)C[C@H]1C#N | 0.026 µM | > 20 µM | > 20 µM | – | – | – |
| C#C[C@@H]1C[C@H](F)CN1C(=O)CC(C)(C)CC(=O)N[C@H]1C[C@@H]1c1cccc(Cl)c1 | 0.015 µM | > 20 µM | – | 66% | 30% | IC50 (Dipeptidyl peptidase 2): > 100 µM; IC50 (Prolyl endopeptidase FAP): > 20 µM; inhibition (Dipeptidyl peptidase 9 [5]): 72%; IC50 (Dipeptidyl peptidase 4 [6]): 0.847 µM; IC50 (Dipeptidyl peptidase 4 [7]): 0.21 µM |
| N#C[C@@H]1CCCN1C(=O)CNC12CC3CC(CC(O)(C3)C1)C2 [VILDAGLIPTIN] | – | – | – | 84% | 73% | – |
| CC(C)(CC(=O)N1Cc2ccccc2C1)NCC(=O)N1CCC[C@H]1C#N | – | – | > 100 µM | – | – | inhibition in vivo at 18 mg/kg (Mus musculus [21]): > 80% |
| CC(C)(CC(=O)N1CC[C@@H](O)C1)NCC(=O)N1C[C@@H](F)C[C@H]1C#N | 0.03 µM | > 20 µM | > 20 µM | 63% | 15% | IC50 (Dipeptidyl peptidase 4 [6]): 0.021 µM; IC50 (Dipeptidyl peptidase 4 [7]): 0.023 µM |
| CC(C)(CC(=O)N1C2CCC1CC2)NCC(=O)N1C[C@@H](F)C[C@H]1C#N | 0.066 µM | > 20 µM | > 20 µM | – | – | – |
| COc1ccc(NC(=O)CC(C)(C)NCC(=O)N2C[C@@H](F)C[C@H]2C#N)cc1OC | 0.027 µM | > 20 µM | – | 86% | 18% | inhibition (Dipeptidyl peptidase 9 [5]): 73% |
